Like-named read-outs stand apart in the source and are kept apart here.
Assays:
[1] = system: Plasmopara viticola (PLASVI); assay: whole plant or invertebrate; type: in vivo
[2] = system: Phytophthora infestans (PHYTIN); assay: whole plant or invertebrate; type: in vivo; settings: for pest or weed control at 1.85 ppm: read-out: % Disease Control (observed)
[3] = Plasmopara viticola, 48 h, read-out: % Disease Control (observed), 2DP, 1.85 ppm alone
[4] = Phytophthora infestans, 24 h, read-out: % Disease Control (observed), 1DP, 5.56 ppm alone
[5] = Phytophthora infestans, 24 h, read-out: % Disease Control (observed), 1DP, 0.62 ppm alone

## COC(=O)CC(NC(=O)[C@@H](NC(=O)OC(C)C)C(C)C)c1ccc(Cl)cc1 (mixture of isomers) [Compound 1, methyl (±)RS-[3-(N-isopropoxycarbonyl-S-valinyl)amino]-3-(4-chlorophenyl)propanoate]
[1]; 2DP, 1.85 ppm alone
  % Disease Control (Observed): 5.3%
[2]; 2DP, 0.62 ppm alone
  % Disease Control (Observed): 7.0%
[2]; in vivo
  % Disease Control (Observed): 40.4%

## C[C@@]1(c2ccc(Oc3ccccc3)cc2)OC(=O)N(Nc2ccccc2)C1=O (racemic) [Famoxadone, famoxadone]
[1]; [3]
  pest or weed control at 1.85 ppm: 31.6%
[2]; Phytophthora infestans, 48 h
  pest or weed control at 1.85 ppm: 47.4%

## CO/C=C(/C(=O)OC)c1ccccc1Oc1cc(Oc2ccccc2C#N)ncn1 [Azoxystrobin, azoxystrobin]
[1]; 3DP, 1.85 ppm alone
  % Disease Control (Observed): 28.1%
[1]; 3DP, 5.56 ppm alone
  % Disease Control (Observed): 59.6%
[2]; 3DP, 5.56 ppm alone
  % Disease Control (Observed): 33.3%

## O=C1C2CC=CCC2C(=O)N1SC(Cl)(Cl)Cl (centres unmarked) [Captan, captan]
[2]; [4]
  pest or weed control at 5.56 ppm: 0%

## N#Cc1c(Cl)c(Cl)c(Cl)c(C#N)c1Cl [Chlorothalonil, chlorothalonil]
[1]; Plasmopara viticola, 24 h, read-out: % Disease Control (observed), 1DP, 1.85 ppm alone
  pest or weed control at 1.85 ppm: 0%
[2]; [4]
  pest or weed control at 5.56 ppm: 0%

## [Cl-].[Cu+2].[Cu+2].[OH-].[OH-].[OH-] [Cu oxychloride, copper oxychloride]
[1]; PLASVI 6DP, applied alone at 38.3 ppm
  % Disease Control (Observed): 3.5%
[2]; 3DP, 5.56 ppm alone
  % Disease Control (Observed): 17.5%
[2]; 3DP, 16.70 ppm alone
  % Disease Control (Observed): 24.6%
[2]; PHYTIN 6DP, applied alone at 12.8 ppm
  % Disease Control (Observed): 0%
[2]; PHYTIN 6DP, applied alone at 38.3 ppm
  % Disease Control (Observed): 22.8%
[2]; Table 10, PHYTIN (3DP) as printed, 16.70 ppm alone
  % Disease Control (Observed): 7.0%

## [Cu+2].[OH-].[OH-] [Cu(OH)2, copper hydroxide]
[1]; 3DP, 16.70 ppm alone
  % Disease Control (Observed): 10.5%
[2]; 3DP, 5.56 ppm alone
  % Disease Control (Observed): 14.0%

## Cc1ccc(-c2c(Cl)nc(C#N)n2S(=O)(=O)N(C)C)cc1 [Cyazofamid, cyazofamid]
[1]; Plasmopara viticola, 72 h, read-out: % Disease Control (observed), 3DP, 0.62 ppm alone
  pest or weed control at 0.62 ppm: 7%
[2]; Phytophthora infestans, 72 h, read-out: % Disease Control (observed), 3DP, 0.62 ppm alone
  pest or weed control at 0.62 ppm: 82.5%

## CCNc1nc(CC)c(C(=O)NC(C#N)c2cccs2)s1 (centres unmarked) [Ethaboxam, ethaboxam]
[1]; 2DP, 1.85 ppm alone
  % Disease Control (Observed): 50.9%
[1]; 2DP, 5.56 ppm alone
  % Disease Control (Observed): 78.9%
[2]; 2DP, 0.62 ppm alone
  % Disease Control (Observed): 10.5%

## O=[N+]([O-])c1cc(C(F)(F)F)c(Cl)c([N+](=O)[O-])c1Nc1ncc(C(F)(F)F)cc1Cl [Fluazinam, fluazinam]
[1]; [3]
  pest or weed control at 1.85 ppm: 14%
[2]; Phytophthora infestans, 72 h
  pest or weed control at 1.85 ppm: 12.3%
[2]; Phytophthora infestans, 72 h, read-out: % Disease Control (observed), 3DP, 5.56 ppm alone
  pest or weed control at 5.56 ppm: 50.9%

## O=C1c2ccccc2C(=O)N1SC(Cl)(Cl)Cl [Folpet, folpet]
[1]; PLASVI 2DP, applied alone at 4.3 ppm
  % Disease Control (Observed): 1.8%
[1]; PLASVI 2DP, applied alone at 12.8 ppm
  % Disease Control (Observed): 22.8%
[1]; Plasmopara viticola, 24 h, read-out: % Disease Control (observed), 1DP, 5.56 ppm alone
  pest or weed control at 5.56 ppm: 0%
[2]; PHYTIN 2DP, applied alone at 4.3 ppm
  % Disease Control (Observed): 1.8%
[2]; PHYTIN 2DP, applied alone at 12.8 ppm
  % Disease Control (Observed): 5.3%
[2]; [5]
  pest or weed control at 0.62 ppm: 0%

## CC[C@H](CS(=O)(=O)[C@@H](C)c1ccc(C#N)cc1)NC(=O)Oc1ccc(F)cc1 [Formula IIIa, 4-fluorophenyl(1S)-1-({[(1S)-1-(4-cyanophenyl)ethyl]sulfonyl}methyl) propylcarbamate]
[1]; 4DP, 1.9 ppm alone
  % Disease Control (Observed): 14.0%
[1]; 4DP, 1.90 ppm alone
  % Disease Control (Observed): 14.00%
[1]; 4DP, 2.8 ppm alone
  % Disease Control (Observed): 76.3%
[2]; 4DP, 0.3 ppm alone
  % Disease Control (Observed): 19.3%
[2]; 4DP, 0.60 ppm alone
  % Disease Control (Observed): 10.50%
[2]; 4DP, 0.9 ppm alone
  % Disease Control (Observed): 73.7%
[2]; 4DP, 1.9 ppm alone
  % Disease Control (Observed): 78.9%
[2]; 4DP, 1.90 ppm alone
  % Disease Control (Observed): 78.90%

## CCO[PH](=O)O [Fosetyl-Al, fosetyl-Al]
[1]; 7DP, 1.85 ppm alone
  % Disease Control (Observed): 8.8%
[1]; 7DP, 5.56 ppm alone
  % Disease Control (Observed): 10.5%
[1]; 7DP, 16.70 ppm alone
  % Disease Control (Observed): 12.3%
[1]; PLASVI 6DP, applied alone at 33.3 ppm
  % Disease Control (Observed): 0%
[2]; PHYTIN 6DP, applied alone at 11.1 ppm
  % Disease Control (Observed): 0%
[2]; PHYTIN 6DP, applied alone at 33.3 ppm
  % Disease Control (Observed): 0%
[2]; in vivo
  % Disease Control (Observed): 0.0%

## COCC(=O)N(c1c(C)cccc1C)C(C)C(=O)OC (centres unmarked) [Metalaxyl, metalaxyl]
[1]; Plasmopara viticola, 72 h, read-out: % Disease Control (observed), 3DP, 1.90 ppm alone
  pest or weed control at 1.9 ppm: 15.8%
[1]; Plasmopara viticola, 72 h, read-out: % Disease Control (observed), 3DP, 5.60 ppm alone
  pest or weed control at 5.6 ppm: 21.1%
[2]; [4]
  pest or weed control at 5.56 ppm: 0%

## COCC(=O)N(c1c(C)cccc1C)N1CCOC1=O [Oxadixyl, oxadixyl]
[1]; Plasmopara viticola, 24 h, read-out: % Disease Control (observed), 1DP, 0.20 ppm alone (Formula III 0.00 ppm)
  pest or weed control at 0.2 ppm: 19.3%
[2]; [5]
  pest or weed control at 0.62 ppm: 0%
[2]; Phytophthora infestans, 24 h, read-out: % Disease Control (observed), 1DP, 1.90 ppm alone
  pest or weed control at 1.9 ppm: 24.6%

## CO/C=C(/C(=O)OC)c1ccccc1COc1cccc(C(F)(F)F)n1 [Picoxystrobin, picoxystrobin]
[1]; 3DP, 5.56 ppm alone
  % Disease Control (Observed): 61.4%
[2]; 3DP, 5.56 ppm alone
  % Disease Control (Observed): 59.6%

From patent US20060153933A1 (priority 2002, published 2006)
